# From US20050085447A1, “Pyrido[3,4-d]pyrimidine derivatives as matrix metalloproteinase-13 inhibitors” (Warner-Lambert Company LLC, priority 2003, published 2005)
# Experiments:
# Format in all cases: biochemical
# [1] = biological target: MMP-13 catalytic domain (Homo sapiens, UniProt P45452); test: Thiopeptolide substrate hydrolysis inhibition assay, MMP-13 catalytic domain; conditions: MMP-13 catalytic domain; read-out: MMP-13CD IC50
# Description: The methods described below for the inhibition of MMP-13 may also be adapted and used to determine the ability of the compounds of Formula I to inhibit other matrix metalloproteases such as MMP-1, MMP-2, MMP-3, MMP-7, MMP-8, MMP-9, MMP-12, MMP-14, MMP-17, and the like.
# Thiopeptolide substrates show virtually no decomposition or hydrolysis at or below neutral pH in the absence of a matrix metalloproteinase enzyme. A typical thiopeptolide substrate commonly utilized for assays is Ac-Pro-Leu-Gly-thioester-Leu-Leu-Gly-OEt. A 100 μL assay mixture will contain 50 mM of N-2-hydroxyethylpiperazine-N′-2-ethanesulfonic acid buffer (“HEPES,” pH 7.0), 10 mM CaCl2, 100 μM thiopeptolide substrate, and 1 mM 5,5′-dithio-bis-(2-nitro-benzoic acid) (DTNB). […] Assays are carried out with and without matrix metalloproteinase inhibitor compounds, and the amount of hydrolysis is compared for a determination of inhibitory activity of the test compounds.
# [2] = biological target: T1, MMP-1 full-length (Homo sapiens, UniProt P03956); test: Thiopeptolide substrate hydrolysis inhibition assay, MMP-1 full-length; conditions: full-length enzyme; read-out: MMP-1FL IC50
# T1 construct: have also been assayed with MMP-1 full-length
# T1 sequence (P03956 100-469): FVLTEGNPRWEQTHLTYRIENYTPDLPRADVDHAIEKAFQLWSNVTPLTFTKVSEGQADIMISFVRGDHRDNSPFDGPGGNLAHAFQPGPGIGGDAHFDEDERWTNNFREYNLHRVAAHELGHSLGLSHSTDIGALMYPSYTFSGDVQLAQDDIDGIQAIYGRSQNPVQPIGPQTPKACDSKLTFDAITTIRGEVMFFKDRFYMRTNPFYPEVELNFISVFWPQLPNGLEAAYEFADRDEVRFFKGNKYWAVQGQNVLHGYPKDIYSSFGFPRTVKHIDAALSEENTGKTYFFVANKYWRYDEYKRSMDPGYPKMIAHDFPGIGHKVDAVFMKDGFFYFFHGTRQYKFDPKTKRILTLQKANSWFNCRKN
# Description: (§1) The assay methods of Biological Examples 1-4 measure the amount by which a test compound reduces the hydrolysis of a thiopeptolide substrate catalyzed by a matrix metalloproteinase enzyme or catalytic domain thereof. It has been shown previously by Ye Qi-Zhuang, Hupe D., and Johnson L. (Current Medicinal Chemistry, 1996;3:407-418) that inhibitor activity against a catalytic domain of an MMP is predictive of the inhibitor activity against the respective full-length MMP enzyme. The methods described below for the inhibition of MMP-13 may also be adapted and used to determine the ability of the compounds of Formula I to inhibit other matrix metalloproteases such as MMP-1, MMP-2, MMP-3, MMP-7, MMP-8, MMP-9, MMP-12, MMP-14, MMP-17, and the like.
# (§2) Thiopeptolide substrates show virtually no decomposition or hydrolysis at or below neutral pH in the absence of a matrix metalloproteinase enzyme. A typical thiopeptolide substrate commonly utilized for assays is Ac-Pro-Leu-Gly-thioester-Leu-Leu-Gly-OEt. A 100 μL assay mixture will contain 50 mM of N-2-hydroxyethylpiperazine-N′-2-ethanesulfonic acid buffer (“HEPES,” pH 7.0), 10 mM CaCl2, 100 μM thiopeptolide substrate, and 1 mM 5,5′-dithio-bis-(2-nitro-benzoic acid) (DTNB). […] The change in absorbance at 405 nm is monitored on a Thermo Max microplate reader (molecular Devices, Menlo Park, Calif.) at room temperature (22° C.). The calculation of the amount of hydrolysis of the thiopeptolide substrate is based on E412=13600 M^−1 cm^−1 for the DTNB-derived product 3-carboxy-4-nitrothiophenoxide. Assays are carried out with and without matrix metalloproteinase inhibitor compounds, and the amount of hydrolysis is compared for a determination of inhibitory activity of the test compounds.
# (§3) Test compounds were evaluated at various concentrations in order to determine their respective IC50 values, the micromolar concentration of compound required to cause a 50% inhibition of catalytic activity of the respective enzyme.
# (§4) Some representative compounds of Formula I have been evaluated for their ability to inhibit MMP-13, MMP-1FL, MMP-3CD, MMP-7FL, MMP-8FL, MMP-9FL, MMP-12CD, MMP-14CD, and/or MMP-17CD, wherein FL means full-length enzyme and CD means a catalytic domain of the full-length enzyme. Test compounds can be evaluated at various concentrations in order to determine their respective IC50 values, the micromolar concentration of compound required to cause a 50% inhibition of the hydrolytic activity of the respective enzyme.
# (§5) Certain compounds of Formula I have also been assayed with MMP-1 full-length, MMP-3 catalytic domain, MMP-7 full-length, MMP-8 full-length, MMP-9 full-length, MMP-12 catalytic domain, MMP-14 catalytic domain, and MMP-17 catalytic domain. […] In Biological Table 2, the compound example numbers for the Compound Examples are indicated in the column labelled “Ex. No.”
# [3] = biological target: T2, MMP-8 full-length (Homo sapiens, UniProt P22894); test: Thiopeptolide substrate hydrolysis inhibition assay, MMP-8 full-length; conditions: full-length enzyme; read-out: MMP-8FL IC50
# T2 construct: MMP-7 full-length, MMP-8 full-length, MMP-9 full-length
# Description: as §1, §2, §3, §4, §5
# [4] = biological target: T3, MMP-9 full-length (Homo sapiens, UniProt P14780); test: Thiopeptolide substrate hydrolysis inhibition assay, MMP-9 full-length; conditions: full-length enzyme; read-out: MMP-9FL IC50
# T3 construct: MMP-8 full-length, MMP-9 full-length, MMP-12 catalytic domain
# Description: as §1, §2, §3, §4, §5
# T2 sequence (P22894 101-467): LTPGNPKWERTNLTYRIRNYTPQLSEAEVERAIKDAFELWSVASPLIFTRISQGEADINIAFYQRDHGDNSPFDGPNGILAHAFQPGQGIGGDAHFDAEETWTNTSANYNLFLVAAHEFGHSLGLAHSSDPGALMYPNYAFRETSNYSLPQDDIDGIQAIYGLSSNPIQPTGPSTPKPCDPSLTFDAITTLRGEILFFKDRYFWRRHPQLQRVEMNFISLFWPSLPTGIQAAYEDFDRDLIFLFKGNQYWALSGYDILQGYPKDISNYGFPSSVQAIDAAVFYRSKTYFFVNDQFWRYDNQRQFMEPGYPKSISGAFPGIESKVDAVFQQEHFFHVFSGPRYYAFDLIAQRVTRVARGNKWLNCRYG
# T3 sequence (P14780 94-707): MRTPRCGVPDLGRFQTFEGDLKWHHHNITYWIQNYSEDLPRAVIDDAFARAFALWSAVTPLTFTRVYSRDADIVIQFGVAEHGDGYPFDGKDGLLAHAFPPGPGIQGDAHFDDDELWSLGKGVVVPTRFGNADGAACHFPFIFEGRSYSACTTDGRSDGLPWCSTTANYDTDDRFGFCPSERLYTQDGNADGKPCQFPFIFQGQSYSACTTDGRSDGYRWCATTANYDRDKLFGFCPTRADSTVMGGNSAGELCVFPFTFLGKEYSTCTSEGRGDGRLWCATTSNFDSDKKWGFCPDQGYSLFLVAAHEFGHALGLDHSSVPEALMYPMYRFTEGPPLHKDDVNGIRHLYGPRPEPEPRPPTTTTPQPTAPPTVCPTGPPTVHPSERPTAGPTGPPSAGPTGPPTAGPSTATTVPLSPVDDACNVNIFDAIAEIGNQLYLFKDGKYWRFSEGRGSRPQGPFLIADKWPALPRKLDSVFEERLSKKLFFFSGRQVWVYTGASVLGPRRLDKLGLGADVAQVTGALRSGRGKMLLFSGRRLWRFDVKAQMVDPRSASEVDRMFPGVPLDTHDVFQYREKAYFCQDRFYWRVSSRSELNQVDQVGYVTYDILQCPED
smiles,measurement,setting,value
"COc1ccc(CNC(=O)c2cc3c(=O)n(Cc4ccc(C(=O)O)cc4)cnc3cn2)cc1 [Compound Example 1, 4-[6-(4-methoxy-benzylcarbamoyl)-4-oxo-4H-pyrido[3,4-d]pyrimidin-3-ylmethyl]-benzoic acid]",IC50,[1],7.7 nM
same,IC50,[2],> 100 µM
same,IC50,[3],> 100 µM
same,IC50,[4],> 100 µM
